Assays:
[1] = biological target: T1, human SGLT2 (Homo sapiens, UniProt P31639); assay: Assay for SGLT2 inhibition (14C-AMG uptake in CHOK1 cells expressing human SGLT2); type: cell-based; conditions: CHOK1 cells expressing human SGLT2; 14C-AMG uptake 0.5 mM, 2 hours at 37° C.; read-out: IC50
T1 construct: expressed in transfected cells; host or cells: CHOK1 (CHO-K1) cells, kept under Geneticin selection
T1 sequence (P31639 1-672): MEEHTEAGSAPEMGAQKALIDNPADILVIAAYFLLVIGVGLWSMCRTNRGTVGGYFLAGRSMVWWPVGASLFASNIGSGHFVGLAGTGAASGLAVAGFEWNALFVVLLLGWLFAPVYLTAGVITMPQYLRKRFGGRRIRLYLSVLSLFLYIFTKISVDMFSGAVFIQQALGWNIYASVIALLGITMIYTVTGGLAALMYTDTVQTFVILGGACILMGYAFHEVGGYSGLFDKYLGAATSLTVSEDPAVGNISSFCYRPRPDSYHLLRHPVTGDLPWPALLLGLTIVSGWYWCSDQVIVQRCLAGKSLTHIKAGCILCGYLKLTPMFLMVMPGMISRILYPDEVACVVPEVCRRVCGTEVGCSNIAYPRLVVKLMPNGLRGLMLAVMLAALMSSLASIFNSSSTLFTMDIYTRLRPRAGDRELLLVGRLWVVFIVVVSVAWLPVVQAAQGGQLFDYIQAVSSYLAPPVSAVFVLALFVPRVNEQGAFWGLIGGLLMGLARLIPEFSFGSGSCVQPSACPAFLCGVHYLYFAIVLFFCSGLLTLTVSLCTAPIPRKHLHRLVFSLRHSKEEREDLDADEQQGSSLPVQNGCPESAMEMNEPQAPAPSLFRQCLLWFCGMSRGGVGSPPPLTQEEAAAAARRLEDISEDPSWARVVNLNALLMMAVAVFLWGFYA
Method: 1. Assay for SGLT2 Inhibition
Compounds described in the above examples were used for the SGLT2 inhibition assay.
CHOK1 cells expressing human SGLT2 were seeded in 24-well plates at a density of 400,000 cells/well in F-12 nutrient mixture (Ham's F-12) containing 10% fetal bovine serum, 400 μg/ml Geneticin, 50 units/ml sodium penicillin G (Gibco-BRL) and 50 μg/ml streptomycin sulfate. […] Test compounds were dissolved in DMSO. The final concentration of DMSO was 0.5%. The transport reaction was initiated by addition of 50 μl [^14C]-methyl-α-D-glucopyranoside (^14C-AMG) solution (final concentration, 0.5 mM). After incubation for 2 hours at 37° C., the uptake was stopped by aspiration of the incubation mixture, the cells were washed three times with ice-cold PBS. Then, cells were solubilized with 0.3 N NaOH and aliquots were taken for determination of radioactivity by a liquid scintillation counter. Nonspecific AMG uptake was defined as that which occurred in the presence of 100 μM of phlorizin, a specific inhibitor of sodium-dependent glucose cotransporter. Specific uptake was normalized for the protein concentrations measured by the method of Bradford.

[2] = system: Sprague-Dawley (SD) rats; assay: Urinary glucose excretion test in rats; type: in vivo, rat; conditions: male SD rats, 30 mg/kg oral gavage, urine collected for 24 hours; daily amount of glucose excreted per individual
Method: 2. Urinary Glucose Excretion Test in Rats Test Compounds:
Compounds described in the above examples were used for the urinary glucose excretion test in rats.
6-week-old male Sprague-Dawley (SD) rats were housed in individual metabolic cages with free access to food and water from 2 days prior to the experiment. On the morning of the experiment, rats were administered vehicle (0.2% carboxymethyl cellulose solution containing 0.2% Tween80) or test compounds (30 mg/kg) by oral gavage at a volume of 10 ml/kg. Then, urine of the rat was collected for 24 hours, and the urine volume was measured. Subsequently, the glucose concentration in urine was quantified using the enzymatic assay kit and the daily amount of glucose excreted in urine per individual was calculated.

Compound	IC50 [1] [nM]	Urinary glucose [2]	melting point [°C]
Cc1ccc([C@@H]2O[C@H](CO)[C@@H](O)[C@H](O)[C@H]2O)cc1Cc1ccc(-c2cccc(F)n2)s1 [Example 146]	2.2	A (A≧2000 mg)	–
OC[C@H]1O[C@@H](c2ccc(Cl)c(Cc3ccc(-c4ccc(F)nc4)s3)c2)[C@H](O)[C@@H](O)[C@@H]1O [Example 168, 1-(β-D-glucopyranosyl)-4-chloro-3-(5-(6-fluoro-3-pyridyl)-2-thienylmethyl)benzene]	2.3	A (A≧2000 mg)	–
Cc1ccc([C@@H]2O[C@H](CO)[C@@H](O)[C@H](O)[C@H]2O)cc1Cc1ccc(-c2cccc(C#N)c2)s1 [Example 127, 1-(β-D-glucopyranosyl)-3-(5-(3-cyanophenyl)-2-thienylmethyl)-4-methylbenzene]	1.3	A (A≧2000 mg)	–
Cc1ccc([C@@H]2O[C@H](CO)[C@@H](O)[C@H](O)[C@H]2O)cc1Cc1ccc(-c2ccc(F)nc2)s1 [Example 120, 1-(β-D-glucopyranosyl)-3-(5-(6-fluoro-3-pyridyl)-2-thienylmethyl)-4-methylbenzene]	3.4	A (A≧2000 mg)	–
CCc1cccc(-c2ccc(Cc3cc([C@@H]4O[C@H](CO)[C@@H](O)[C@H](O)[C@H]4O)ccc3C)s2)c1 [Example 140]	5.9	B (2000 mg>B≧1000 mg)	–
OC[C@H]1O[C@@H](n2cc(Cc3cc4ccccc4s3)c3ccccc32)[C@H](O)[C@@H](O)[C@@H]1O [Example 195, 1-(β-D-glucopyranosyl)-3-(benzo[b]thiophen-2-ylmethyl)indole]	–	B (2000 mg>B≧1000 mg)	–
COc1ccc(-c2ccc(Cc3cc([C@@H]4O[C@H](CO)[C@@H](O)[C@H](O)[C@H]4O)ccc3Cl)s2)cn1 [Example 169, 1-(β-D-glucopyranosyl)-4-chloro-3-(5-(6-methoxy-3-pyridyl)-2-thienylmethyl)benzene]	3.6	B (2000 mg>B≧1000 mg)	–
N#Cc1cccc(-c2ccc(Cc3cc([C@@H]4O[C@H](CO)[C@@H](O)[C@H](O)[C@H]4O)ccc3F)s2)c1 [Example 189, 1-(β-D-glucopyranosyl)-4-fluoro-3-(5-(3-cyanophenyl)-2-thienylmethyl)benzene]	2.4	B (2000 mg>B≧1000 mg)	127 to 129
OC[C@H]1O[C@@H](c2ccc(Cl)c(Cc3ccc(-c4cccc(F)n4)s3)c2)[C@H](O)[C@@H](O)[C@@H]1O [Example 156]	1.1	A (A≧2000 mg)	–
Cc1ccc([C@@H]2O[C@H](CO)[C@@H](O)[C@H](O)[C@H]2O)cc1Cc1ccc(-c2ccc(C#N)cc2)s1 [Example 151]	2.5	B (2000 mg>B≧1000 mg)	–
COc1cccc(-c2ccc(Cc3cc([C@@H]4O[C@H](CO)[C@@H](O)[C@H](O)[C@H]4O)ccc3Cl)s2)n1 [Example 170, 1-(β-D-glucopyranosyl)-4-chloro-3-(5-(6-methoxy-2-pyridyl)-2-thienylmethyl)benzene]	3.5	B (2000 mg>B≧1000 mg)	–
COc1ccc(-c2ccc(Cc3cc([C@@H]4O[C@H](CO)[C@@H](O)[C@H](O)[C@H]4O)ccc3C)s2)cc1 [Example 144]	4.1	B (2000 mg>B≧1000 mg)	–
N#Cc1cccc(-c2ccc(Cc3cc([C@@H]4O[C@H](CO)[C@@H](O)[C@H](O)[C@H]4O)ccc3Cl)s2)c1 [Example 123, 1-(β-D-glucopyranosyl)-4-chloro-3-(5-(3-cyanophenyl)-2-thienylmethyl)benzene]	1.4	A (A≧2000 mg)	–
OC[C@H]1O[C@@H](c2ccc(Cl)c(Cc3ccc(-c4cccc(C(F)F)c4)s3)c2)[C@H](O)[C@@H](O)[C@@H]1O [Example 178, 1-(β-D-glucopyranosyl)-4-chloro-3-(5-(3-difluoromethylphenyl)-2-thienylmethyl)benzene]	5.1	B (2000 mg>B≧1000 mg)	–
Cc1ccc([C@@H]2O[C@H](CO)[C@@H](O)[C@H](O)[C@H]2O)cc1Cc1ccc(-c2ccc(F)c(F)c2)s1 [Example 177, 1-(β-D-glucopyranosyl)-3-(5-(3,4-difluorophenyl)-2-thienylmethyl)-4-methylbenzene]	6.7	A (A≧2000 mg)	–
O=Cc1ccc(-c2ccc(Cc3cc([C@@H]4O[C@H](CO)[C@@H](O)[C@H](O)[C@H]4O)ccc3Cl)s2)cc1 [Example 249, 1-(β-D-Glucopyranosyl)-4-chloro-3-(5-(4-formylphenyl)-2-thienylmethyl)benzene]	4.3	–	–
OC[C@H]1O[C@@H](c2ccc(Cl)c(Cc3ccc(-c4ccc(F)cn4)s3)c2)[C@H](O)[C@@H](O)[C@@H]1O [Example 194, 1-(β-D-glucopyranosyl)-4-chloro-3-(5-(5-fluoropyridin-2-yl)-2-thienylmethyl)benzene]	2.6	A (A≧2000 mg)	–
Cc1ccc([C@@H]2O[C@H](CO)[C@@H](O)[C@H](O)[C@H]2O)cc1Cc1ccc(-c2ccc(F)s2)s1 [Example 148]	2.8	B (2000 mg>B≧1000 mg)	–
Cc1ccc([C@@H]2O[C@H](CO)[C@@H](O)[C@H](O)[C@H]2O)cc1Cc1ccc(-c2ccc(OC(F)F)cc2)s1 [Example 237]	2.8	–	–
N#Cc1ccc(-c2ccc(Cc3cc([C@@H]4O[C@H](CO)[C@@H](O)[C@H](O)[C@H]4O)ccc3Cl)s2)cn1 [Example 187, 1-(β-D-glucopyranosyl)-4-chloro-3-(5-(2-cyano-5-pyridyl)-2-thienylmethyl)benzene]	4.3	–	–
OC[C@H]1O[C@@H](c2ccc(F)c(Cc3ccc(-c4nccs4)s3)c2)[C@H](O)[C@@H](O)[C@@H]1O [Example 190, 1-(β-D-glucopyranosyl)-4-fluoro-3-(5-(2-thiazolyl)-2-thienylmethyl)benzene]	3.1	–	161.5 to 162

— patent US8222219B2, “Glucopyranoside compound” (Mitsubishi Tanabe Pharma Corporation, priority 2003, dated 2012)
